Reference: a melting point compilation (Tetko et al.; mined from patent text by program, amines drawn as free bases though some values may be those of a salt)

Row | Structure (SMILES) | melting point
1 | O=C1CCC(N2C(=O)c3cccc(OCc4ccc(Cl)c(Cl)c4)c3C2=O)C(=O)N1 (centres undefined) | 245 to 247 °C
2 | CCCCCCCCCCOCCCN=C=O | 78 to 82 °C
3 | Cc1ccc(CC2CCN(C(=O)C(=O)Nc3ccc(NS(C)(=O)=O)cc3)CC2)cc1 | 179 to 181 °C
4 | Cc1nc(OCCCCn2cncn2)c([N+](=O)[O-])c(N2CCc3ccccc3CC2)n1 | 88 to 91 °C
5 | Cc1cc(C2=NOC(c3cc(Cl)cc(Cl)c3)(C(F)(F)F)C2)ccc1S(=O)(=O)NCc1ccccn1 (centres undefined) | 57 to 58 °C
6 | O=[N+]([O-])c1cnn2c1-c1ccccc1NC2C1CCCCC1 (centres undefined) | 150 to 152 °C
7 | OCC(CO)Oc1ccc(Cl)cc1 | 62 to 64 °C
8 | O=C(O)C1=Cc2cc(Cl)c(Oc3ccc(F)c(F)c3)cc2OC1C(F)(F)F (centres undefined) | 192 to 193 °C
9 | COc1cnn(-c2ccc(C)cc2)n1 | 65 to 67 °C
10 | CCOCc1cnn2c(-c3cccc(C(F)(F)F)c3)ccnc12 | 110 to 111 °C
11 | NS(=O)(=O)c1cc(C(=O)c2ccc3c(c2)CCC3)ccc1Cl | 164 to 166 °C
12 | CC(C)c1cccc(C(C)C)c1NC(=O)CN1CC2(CCCCC2)N(c2ccccc2)S1(=O)=O | 140 to 142 °C
13 | CCCCCc1ccc(C2c3c(C)c(N)c(C)c(C)c3OC2(C)C)cc1 (centres undefined) | 67 to 68 °C
14 | COc1ccc(-c2ccccc2-c2c(Cl)nc3ncnn3c2Cl)c(Cl)c1 | 163 °C
15 | CC(C)c1ccc(C(C)(C)C)c(O)c1C(=O)Nc1ccc(S(=O)(=O)C(F)(F)F)cc1Cl | 116 °C
16 | O=c1c2ccc(O)cc2oc2oc3cc(O)ccc3c12 | > 300 °C
17 | CCC(O)(CC)Cc1ccc(NC(=O)/C=C/c2cnn(C)c2-c2ccc(F)cc2)cc1 | 150 to 151 °C
18 | COc1cc(O)cc(OC)c1/C=C/S(=O)(=O)CS(=O)(=O)/C=C/c1c(OC)cc(O)cc1OC | 148 to 150 °C
19 | COc1ccc2c(Cl)cc(-n3cccn3)nc2c1 | 80 °C

Row | Structure (SMILES) | melting point
20 | O=C(CCl)Nc1ccc2c(c1NC(=O)c1cccs1)C(=O)c1ccccc1C2=O | 190 to 191 °C
21 | CN1CCc2cc(O)c(O)c(SCc3ccco3)c2CC1 | 162 to 165 °C
22 | NC(=O)C(=O)c1c2n(c3ccccc13)CCNCC2 | 214 to 215 °C
23 | CCCOC(=O)C(=C1SC=CS1)S(=O)(=O)C(C)C | 78 to 79 °C
24 | FC(F)(F)c1ccnc(N2CCN(Cc3n[nH]c4ccccc34)CC2)c1 | 99 to 100 °C
25 | CCOCc1nc2c(N)nc3cc(-c4cccnc4)ccc3c2n1CC(O)CO (centres undefined) | 202 to 204 °C
26 | CC(=O)c1c(CCN2CCN(C)CC2)nc(-c2ccccc2)nc1-c1cccc([N+](=O)[O-])c1 | 88 to 91 °C
27 | Nc1nc2c(ncn2CCC(CO)CCl)c(=O)[nH]1 (centres undefined) | 273 to 275 °C
28 | CN(C)C(=O)C=Cc1ccc(SC2Cc3cc(O)ccc3C3CCC4(C)C(O)CCC4C23)cc1 (centres undefined) | 152 to 155 °C
29 | CC(C)(C)OC(=O)[C@@H]1CCCN2C(=O)CC[C@H](NS(C)(=O)=O)C(=O)N12 | 68 to 70 °C
30 | CC1(COc2ccc(N3CCN(c4ccc(C(F)(F)F)cc4)CC3)cc2)Cn2cc([N+](=O)[O-])nc2O1 (centres undefined) | 231 to 233 °C
31 | Nc1ccc(CCOCCCCCCNCC(O)c2cc(Cl)c(N)c(Cl)c2)cc1 (centres undefined) | 71 to 73 °C
32 | Cc1ccc2nc3n(c2c1)CCC3 | 118 to 120 °C
33 | CS(=O)(=O)C(=C1CN(C(c2ccc(Cl)cc2)c2ccc(Cl)cc2)C1)c1cccc(SC(F)(F)F)c1 | 70 °C
34 | C[C@]12CCC(=O)C=C1CC[C@@H]1[C@@H]2CC[C@]2(C(F)F)C(=O)CC[C@@H]12 | 183 to 184 °C
35 | OC(CCN1CC=C(c2ccc(Cl)cc2)CC1)c1ccc(Cc2ccccn2)cc1 (centres undefined) | 129 to 131 °C
36 | CCC12CCC(NC(=O)C=CC(=O)OC)C3Oc4c(O)ccc5c4C31CCN(CC1CC1)C2C5 (centres undefined) | 233 to 236 °C
37 | CC(C)(CCCCOCCCCc1ccc(N2CCOCC2)cc1)NCC(O)c1ccc(O)c(NS(C)(=O)=O)c1 (centres undefined) | 165 to 167 °C

The remaining lines, values ahead:

Row | melting point | Structure (SMILES)
38 | 112 °C | C[C@H](N=Cc1ccc(OCc2cccc(F)c2)cc1)C(N)=O
39 | 101 to 102 °C | CN(O)CCc1ccc2c(c1)C(=O)c1ccccc1CO2
40 | 83 to 85 °C | Cc1cc(C2(C(F)(F)F)CC(Cl)=NO2)ccc1NC(=O)OC(C)(C)C (centres undefined)
41 | 92 to 95 °C | COC(=O)CCc1ccc(OCc2nc(-c3ccccc3)c(-c3ccccc3)o2)cc1
42 | 117 °C | CCC(C)N(C)C(=O)c1cc2ccsc2c(-c2ccccc2)n1 (centres undefined)
43 | 199 to 201 °C | Cc1nc2c3c(c(C(=O)N(C)C)cc2n1C)CC[C@@H](c1ccccc1F)O3
44 | 143 °C | CC(C)(C)[N+]([O-])=CCc1ccccc1
45 | 111 °C | CCCc1cc([N+](=O)[O-])cc2cc(C(=O)OCC)oc12
46 | 101 °C | C#CCNc1nnc(-c2ccccc2)cc1C
47 | 88 to 89 °C | C=C=Cc1c(C)nc2c(OCc3ccccc3C)cccn12
48 | 140 to 142 °C | N#CC1=Nc2nc(C3CCCC3)[nH]c2C2=N[C@H](Cc3ccccc3)CN12
49 | 135 to 137 °C | COC(=O)c1ccc(OCC(=O)c2ccc3c(c2)C(C)(C)CCS3)cc1O
50 | 104 to 106 °C | Oc1c(Cc2ccccc2)ccc2[nH]ccc12
51 | 106 to 107 °C | CCCNC(=O)Nc1ccccc1
52 | 141 to 143 °C | O=[N+]([O-])c1c(O)c(O)cc2ccccc12
53 | 98 to 99 °C | COC(=O)Nc1cccc(OC(=O)N(CCC#N)c2ccccc2)c1
54 | 136 to 138 °C | CON(C(=O)C1=C(O)C(=O)N(C)C1)C(C)c1ccc(F)cc1 (centres undefined)
55 | 72 to 77 °C | CCOC(=O)c1ccc2c(c1)CC(CO)O2 (centres undefined)
56 | 217 to 218 °C | CCc1cc2c(-c3ccccc3OC)c(NC(=O)Nc3cc(C)c(OC(C)=O)c(C)c3)cnc2s1

Row | melting point | Structure (SMILES)
57 | 54 to 57 °C | COc1ccc2cc(CN(C)C(=O)c3oc4ccccc4c3CCc3ccccc3)ccc2c1Br
58 | 106 °C | N#CC1(c2ccc(C(=O)c3cccs3)cc2)CC1
59 | 130 to 133 °C | Cc1ccc([N+](=O)[O-])cc1Nc1cc(Cl)ccn1
60 | 50 to 51 °C | CCOC(=O)c1oc2ccc(OC)cc2c1OCC
61 | 133 to 135 °C | CCOC(=O)c1ncc2[nH]c3cccc(COC)c3c2c1C
62 | 85 to 93 °C | N#CCNC(=O)c1ccco1
63 | 92 to 92.5 °C | CC(C)=CCCC(C)=CCCC(C)=Cc1ccc(C(=O)O)cc1
64 | 119 to 120 °C | Cc1oc(-c2ccco2)nc1COc1ccc(COc2nn(Cc3ccccc3)cc2CO)cc1Cl
65 | 155 to 157 °C | CC1(c2cccc(S(N)(=O)=O)c2)OCCO1
66 | 131 to 132 °C | OC(=S)CC1c2ccccc2Oc2ccccc21
67 | 83 to 84 °C | Cc1nc(C(C)(O)c2ccsc2)c(C)o1 (centres undefined)
68 | 173 to 174 °C | CCOC(=O)CCCCn1c(=O)[nH]c2ccc([N+](=O)[O-])cc2c1=O
69 | 237 to 238 °C | Cc1[nH]c(=O)c(C#N)cc1C(=O)n1ccnc1
70 | 93 to 95 °C | O=[N+]([O-])CS(=O)(=O)c1ccc(O)cc1
71 | 255 to 257 °C | Cc1cccc(NC(=O)Nc2nnc(C(F)(F)F)s2)c1
72 | 220 to 222 °C | Cc1ccn2c(=O)c(C(=O)NC3CCCC3)cnc2c1
73 | 210 °C | O=C(O)C#Cc1ccc(-c2ccc(Cl)cc2)cn1
74 | 162 to 164 °C | N#CCCSN1C(=O)c2ccccc2C1=O
